These results are taken from US9353104B2, “Substituted pyridizinone derivatives as PDE10 inhibitors” (priority 2013, dated 2016).

Chain of human PDE10A2 (Q9Y233 267-1055): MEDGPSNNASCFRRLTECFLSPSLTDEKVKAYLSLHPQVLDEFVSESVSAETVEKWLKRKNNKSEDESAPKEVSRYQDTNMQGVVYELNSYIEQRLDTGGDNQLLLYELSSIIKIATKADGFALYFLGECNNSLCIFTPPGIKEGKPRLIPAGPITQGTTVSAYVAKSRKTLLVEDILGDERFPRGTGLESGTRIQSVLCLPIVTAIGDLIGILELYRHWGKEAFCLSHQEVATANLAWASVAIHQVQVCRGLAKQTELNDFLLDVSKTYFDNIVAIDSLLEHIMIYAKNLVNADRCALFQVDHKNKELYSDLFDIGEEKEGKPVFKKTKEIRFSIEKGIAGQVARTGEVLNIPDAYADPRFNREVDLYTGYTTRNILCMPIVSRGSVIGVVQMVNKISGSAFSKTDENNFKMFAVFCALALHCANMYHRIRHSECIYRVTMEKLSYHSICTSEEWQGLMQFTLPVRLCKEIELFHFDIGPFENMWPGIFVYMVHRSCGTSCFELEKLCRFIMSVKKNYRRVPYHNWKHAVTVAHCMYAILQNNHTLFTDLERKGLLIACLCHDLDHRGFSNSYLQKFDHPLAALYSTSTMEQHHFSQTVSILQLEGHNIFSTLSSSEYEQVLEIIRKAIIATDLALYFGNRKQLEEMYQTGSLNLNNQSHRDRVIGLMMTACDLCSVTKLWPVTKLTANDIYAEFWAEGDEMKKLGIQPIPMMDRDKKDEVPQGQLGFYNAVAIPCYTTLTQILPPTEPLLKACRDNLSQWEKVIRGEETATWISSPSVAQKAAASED

The target of the assay is human PDE10A2 (Homo sapiens (Human), UniProt Q9Y233). Put plainly: PDE10 fluorescence polarization (IMAP FP) inhibition assay. Type of assay: biochemical. Particulars: human PDE10A2 lysate, FAM-labeled cAMP 50 nM, room temperature; read-out: PDE10A Ki. In outline:
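Cytoplasmic lysate of AD293 cells transiently expressing human PDE10A2, diluted for ~20% conversion of 50 nM FAM-cAMP, in 10 mM Tris pH 7.2, 10 mM MgCl2, 1 mM DTT, 0.01% Tween-20. Reaction 30 min at room temperature, read by IMAP fluorescence polarization; 10-point 3-fold titrations, 1% DMSO as 0%, reference PDE10 inhibitor at 5,000× Ki as 100%.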
On the technique in general: In fluorescence polarisation assays a small probe gives low polarisation when free and higher when bound to something large.
`Cc1ccc([C@H]2C[C@@H]2COc2cc(NCc3cnn4ccccc34)c(=O)n(C)n2)nc1` [Example 79, 2-methyl-6-(((1S,2S)-2-(5-methylpyridin-2-yl)cyclopropyl)methoxy)-4-((pyrazolo[1,5-a]pyridin-3-ylmethyl)amino)-pyridazin-3(2H)-one]: the Ki – broadly, a dissociation constant, usually derived from enzyme kinetics or from competition with a known ligand – amounted to 1.1 nM.

As for `CN(C)c1c(CNc2cc(OC[C@H]3C[C@@H]3c3ccn(C)n3)nn(C)c2=O)cnn1C` [Example 82, 4-(((5-(dimethylamino)-1-methyl-1H-pyrazol-4-yl)methyl)amino)-2-methyl-6-(((1S,2S)-2-(1-methyl-1H-pyrazol-3-yl)cyclopropyl)methoxy)-pyridazin-3(2H)-one], the Ki is 75 nM.

Regarding `COc1ccc([C@H]2C[C@@H]2COc2cc(NCc3cnn(C)c3N(C)C)c(=O)n(C)n2)nc1` [Example 83, 4-(((5-(dimethylamino)-1-methyl-1H-pyrazol-4-yl)methyl)amino)-6-(((1S,2S)-2-(5-methoxypyridin-2-yl)cyclopropyl)methoxy)-2-methylpyridazin-3(2H)-one], the Ki was 42.6 nM.

On to `Cc1cnn(C)c1CNc1cc(OC[C@H]2C[C@@H]2c2ccn(C)n2)nn(C)c1=O` [Example 86, 4-(((1,4-dimethyl-1H-pyrazol-5-yl)methyl)amino)-2-methyl-6-(((1S,2S)-2-(1-methyl-1H-pyrazol-3-yl)cyclopropyl)methoxy)-pyridazin-3(2H)-one], for which the Ki is 9.4 nM.

On to `COc1ccc([C@H]2C[C@@H]2COc2cc(NCc3cc(C)on3)c(=O)n(C)n2)nc1` [Example 87, 6-(((1S,2S)-2-(5-methoxypyridin-2-yl)cyclopropyl)methoxy)-2-methyl-4-(((5-methylisoxazol-3-yl)methyl)amino)pyridazin-3(2H)-one], for which the Ki was 0.01 nM.

Regarding `COc1ccc([C@H]2C[C@@H]2COc2cc(NCc3nc(C)nn3C)c(=O)n(C)n2)nc1` [Example 88, 4-(((1,3-dimethyl-1H-1,2,4-triazol-5-yl)methyl)amino)-6-(((1S,2S)-2-(5-methoxypyridin-2-yl)cyclopropyl)methoxy)-2-methylpyridazin-3(2H)-one], the Ki came out at 2.8 nM.

As to `COc1ccc([C@H]2C[C@@H]2COc2cc(NCc3cc(C)no3)c(=O)n(C)n2)nc1` [Example 89, 6-(((1S,2S)-2-(5-methoxypyridin-2-yl)cyclopropyl)methoxy)-2-methyl-4-(((3-methylisoxazol-5-yl)methyl)amino)pyridazin-3(2H)-one], the Ki was 0.008 nM.

As to `COc1ccc([C@H]2C[C@@H]2COc2cc(N(Cc3ccc(C)nc3C)Cc3ccc(C)nc3C)c(=O)n(C)n2)nc1` [Example 91, 4-(bis((2,6-dimethylpyridin-3-yl)methyl)amino)-6-(((1S,2S)-2-(5-methoxypyridin-2-yl)cyclopropyl)methoxy)-2-methylpyridazin-3(2H)-one], the Ki was determined as 5.9 nM.

As for `COc1ccc([C@H]2C[C@@H]2COc2cc(NC(=O)c3cnn(C)c3Cl)c(=O)n(C)n2)nc1` [Example 95, 5-chloro-N-(6-(((1S,2S)-2-(5-methoxypyridin-2-yl)-cyclopropyl)methoxy)-2-methyl-3-oxo-2,3-dihydro-pyridazin-4-yl)-1-methyl-1Hpyrazole-4carboxamide], the Ki is 75 nM.

For the compound `COc1ccc([C@H]2C[C@@H]2COc2cc(NCc3cnn(C)c3Cl)c(=O)n(C)n2)nc1` [Example 96, 4-(((5-chloro-1-methyl-1H-pyrazol-4-yl)methyl)-amino)-6-(((1S,2S)-2-(5-methoxypyridin-2-yl)-cyclopropyl)methoxy)-2-methylpyridazin-3(2H)one], the Ki was determined as 1.27 nM.

As for `COc1ccc([C@H]2C[C@@H]2COc2cc(NCc3cccc(C)n3)c(=O)n(C)n2)nc1` [Example 97, 6-(((1S,2S)-2-(5-methoxypyridin-2-yl)-cyclopropyl)methoxy)-2-methyl-4-(((6-methyl-pyridin-2-yl)methyl)-amino)pyridazin-3(2H)one], the Ki was found to be 2.7 nM.

As to `Cn1ccc([C@H]2C[C@@H]2COc2cc(NCc3ccnn3C)c(=O)n(C)n2)n1` [Example 98, 2-methyl-6-(((1S,2S)-2-(1-methyl-1H-pyrazol-3-yl)cyclopropyl)methoxy)-4-(((1-methyl-1H-pyrazol-5-yl)methyl)amino)-pyridazin-3(2H)-one], the Ki is 1.5 nM.

Regarding `Cc1ccc([C@H]2C[C@@H]2COc2cc(NCc3ccnn3C)c(=O)n(C)n2)nc1` [Example 99, 2-methyl-4-(((1-methyl-1H-pyrazol-5-yl)methyl-)amino)-6-(((1S,2S)-2-(5-methylpyridin-2-yl)cyclo-propyl)methoxy)pyridazin-3(2H)-one], the Ki was determined as 0.138 nM.

Consider `COc1ccc([C@H]2C[C@@H]2COc2cc(NCc3ccnn3C)c(=O)n(C)n2)nc1` [Example 100, 6-(((1S,2S)-2-(5-methoxypyridin-2-yl)-cyclopropyl)methoxy)-2-methyl-4-(((1-methyl-1H-pyrazol-5-yl)methyl)-amino)pyridazin-3(2H)one], for which the Ki was found to be 0.192 nM.

For the compound `COc1ccc([C@H]2C[C@@H]2COc2cc(NC(=O)c3cc(C)nn3C)c(=O)n(C)n2)nc1` [Example 101, N-(6-(((1S,2S)-2-(5-methoxypyridin-2-yl)-cyclopropyl)methoxy)-2-methyl-3-oxo-2,3-dihydropyridazin-4-yl)-1,3-dimethyl-1H-pyrazole-5-carboxamide], the Ki stood at 75 nM.

`Cc1ccc([C@H]2C[C@@H]2COc2cc(NC(=O)c3cc(C)nn3C)c(=O)n(C)n2)nc1` [Example 102, 1,3-dimethyl-N-(2-methyl-6-(((1S,2S)-2-(5-methyl-pyridin-2-yl)cyclopropyl-)methoxy)-3-oxo-2,3-dihydropyridazin-4-yl)-1H-pyrazole-5-carboxamide]: the Ki is 51.2 nM.

On to `Cc1cc(C(=O)Nc2cc(OC[C@H]3C[C@@H]3c3ccn(C)n3)nn(C)c2=O)n(C)n1` [Example 103, 1,3-dimethyl-N-(2-methyl-6-(((1S,2S)-2-(1-methyl-1H-pyrazol-3-yl)cyclopropyl)methoxy)-3-oxo-2,3-dihydropyridazin-4-yl)-1H-pyrazole-5-carboxamide], for which the Ki is 75 nM.

For the compound `Cc1ccc([C@H]2C[C@@H]2COc2cc(NCc3cn(C)nc3C(F)(F)F)c(=O)n(C)n2)nc1` [Example 104, 2-methyl-4-(((1-methyl-3-(trifluoromethyl)-1H-pyrazol-4-yl)methyl)-amino)-6-(((1S,2S)-2-(5-methylpyridin-2-yl)cyclo-propyl)methoxy)pyridazin-3(2H)-one], the Ki turned out to be 0.056 nM.

In the case of `COc1ccc([C@H]2C[C@@H]2COc2cc(NCc3cc(C)ccn3)c(=O)n(C)n2)nc1` [Example 105, 6-(((1S,2S)-2-(5-methoxy-pyridin-2-yl)cyclopropyl-)methoxy)-2-methyl-4-(((-4-methylpyridin-2-yl)-methyl)amino)pyridazin-3(2H)-one], the Ki amounted to 0.276 nM.

As to `CCn1ccc(CNc2cc(OC[C@H]3C[C@@H]3c3ccc(OC)cn3)nn(C)c2=O)n1` [Example 106, 4-(((1-ethyl-1H-pyrazol-3-yl)methyl)amino)-6-(((-1S,2S)-2-(5-methoxy-pyridin-2-yl)cyclopropyl-)methoxy)-2-methyl-pyridazin-3(2H)-one], the Ki amounted to 5.89 nM.

For `Cc1ncc(CNc2cc(OC[C@H]3C[C@@H]3c3nn(C)c4ccccc34)nn(C)c2=O)s1` [Example 109, 2-methyl-6-(((1S,2S)-2-(1-methyl-1H-indazol-3-yl)cyclopropyl)methoxy)-4-((2-methylthiazol-5-yl)methylamino)pyridazin-3(2H)-one], the Ki amounted to 2.15 nM.

Turning to `Cc1ncc(CNc2cc(OC[C@@H]3C[C@H]3c3nn(C)c4ccccc34)nn(C)c2=O)s1` [Example 110, 2-methyl-6-(((1R,2R)-2-(1-methyl-1H-indazol-3-yl)cyclopropyl)methoxy)-4-((2-methylthiazol-5-yl)methylamino)pyridazin-3(2H)-one], the Ki was determined as 0.077 nM.

As to `Cn1cc(CNc2cc(OC[C@H]3C[C@@H]3c3nn(C)c4ccccc34)nn(C)c2=O)cn1` [Example 111, 2-methyl-6-(((1S,2S)-2-(1-methyl-1H-indazol-3-yl)cyclopropyl)methoxy)-4-((1-methyl-1H-pyrazol-4-yl)methylamino)-pyridazin-3(2H)-one], the Ki was 1.9 nM.

Regarding `Cc1cnc(CNc2cc(OC[C@H]3C[C@@H]3c3nn(C)c4ccccc34)nn(C)c2=O)s1` [Example 112, 2-methyl-6-(((1S,2S)-2-(1-methyl-1H-indazol-3-yl)cyclopropyl)methoxy)-4-((5-methylthiazol-2-yl)methylamino)pyridazin-3(2H)-one], the Ki came out at 1.4 nM.

For the compound `Cn1cc(CNc2cc(OC[C@@H]3C[C@H]3c3nn(C)c4ccccc34)nn(C)c2=O)cn1` [Example 113, 2-methyl-6-(((1R,2R)-2-(1-methyl-1H-indazol-3-yl)cyclopropyl)methoxy)-4-((1-methyl-1H-pyrazol-4-yl)methylamino) pyridazin-3(2H)-one], the Ki was 0.197 nM.

With `Cc1cnc(CNc2cc(OC[C@@H]3C[C@H]3c3nn(C)c4ccccc34)nn(C)c2=O)s1` [Example 114, 2-methyl-6-(((1R,2R)-2-(1-methyl-1H-indazol-3-yl)cyclopropyl)methoxy)-4-((5-methylthiazol-2-yl)methylamino)pyridazin-3(2H)-one], the Ki is 0.118 nM.

As for `Cc1cccc([C@H]2C[C@@H]2COc2cc(NCc3nnc(C)s3)c(=O)n(C)n2)n1` [Example 115, 2-methyl-4-((5-methyl-1,3,4-thiadiazol-2-yl)methylamino)-6-(((1S,2S)-2-(6-methylpyridin-2-yl)cyclopropyl)methoxy) pyridazin-3(2H)-one], the Ki was 0.033 nM.

Regarding `Cc1cccc([C@H]2C[C@@H]2COc2cc(NCc3cc(C)nn3C)c(=O)n(C)n2)n1` [Example 116, 4-((1,3-dimethyl-1H-pyrazol-5-yl)methylamino)-2-methyl-6-(((1S,2S)-2-(6-methylpyridin-2-yl)cyclopropyl)methoxy) pyridazin-3(2H)-one], the Ki is 0.005 nM.
